Assay results taken from US12077503B2, “Substituted cyclic amides and their use as herbicides” (FMC CORPORATION, priority 2015, dated 2024).

How the values were obtained:
Assay type in all cases: in vivo
[1] = tested on: corn (Zea mays); experiment: Test A postemergence
How it was run: (§1)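 Seeded soil received test chemicals as a preemergence directed spray, and seedlings at one to two leaves, 2–10 cm tall, received them postemergence, in a non-phytotoxic, surfactant-containing solvent mixture. Pots were held in a greenhouse for approximately 10 d, then rated for injury from 0, no effect, to 100, complete control.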

[2] = tested on: ragweed (common ragweed, Ambrosia elatior); experiment: Test A postemergence; conditions: postemergence, 0 to 100 scale (0 no effect, 100 complete control)
How it was run: as §1

[3] = tested on: Kochia (Kochia scoparia); experiment: Test A postemergence; conditions: postemergence, 0 to 100 scale (0 no effect, 100 complete control)
How it was run: as §1

[4] = tested on: giant foxtail (Setaria faberii); experiment: Test A postemergence; conditions: postemergence, 0 to 100 scale (0 no effect, 100 complete control)
How it was run: as §1

[5] = tested on: wheat (Triticum aestivum); experiment: Test A postemergence; conditions: postemergence, 0 to 100 scale (0 no effect, 100 complete control)
How it was run: as §1

[6] = tested on: Galium (catchweed bedstraw, Galium aparine); experiment: Test A postemergence; conditions: postemergence, 0 to 100 scale (0 no effect, 100 complete control)
How it was run: as §1

[7] = tested on: blackgrass (Alopecurus myosuroides); experiment: Test A postemergence
How it was run: as §1

[8] = tested on: ryegrass, Italian (Italian ryegrass, Lolium multiflorum); experiment: Test A postemergence; conditions: postemergence, 0 to 100 scale (0 no effect, 100 complete control)
How it was run: as §1

[9] = tested on: barnyardgrass (Echinochloa crus-galli); experiment: Test A postemergence
How it was run: as §1

[10] = tested on: pigweed (Amaranthus retroflexus); experiment: Test A postemergence; conditions: postemergence, 0 to 100 scale (0 no effect, 100 complete control)
How it was run: as §1

[11] = tested on: ragweed (common ragweed, Ambrosia elatior); experiment: Test C preemergence; conditions: for Plant response rating (scale of 0 to 100), Ragweed: 31 g ai/ha, 0 is no effect, 100 is complete control; for Plant response rating, Ragweed: scale 0 to 100, 0 no effect, 100 complete control
How it was run: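 Preemergence application to seeds in loam/sand soil, or foliar (postemergence) application to plants 2–18 cm tall in peat moss/vermiculite medium; surfactant-containing non-phytotoxic solvent vehicle; greenhouse. Visual injury vs controls at 13–15 d; 0 = no effect, 100 = complete control.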

[12] = tested on: ragweed (common ragweed, Ambrosia elatior); experiment: Test A preemergence
How it was run: as §1

[13] = tested on: Kochia (Kochia scoparia); experiment: Test A preemergence
How it was run: as §1

[14] = tested on: giant foxtail (Setaria faberii); experiment: Test A preemergence
How it was run: as §1

[15] = tested on: ryegrass, Italian (Italian ryegrass, Lolium multiflorum); experiment: Test A preemergence
How it was run: as §1

[16] = tested on: barnyardgrass (Echinochloa crus-galli); experiment: Test A preemergence
How it was run: as §1

[17] = tested on: pigweed (Amaranthus retroflexus); experiment: Test A preemergence
[18] = tested on: sedge, umbrella (small-flower umbrella sedge, Cyperus difformis); experiment: Test B flooded paddy test; conditions: Flood, 0 to 100 scale where 0 is no effect and 100 is complete control, 13 to 15 d
How it was run: (§2)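 Flooding to 3 cm over soil accompanied treatment, which consisted of adding compound to the standing water around 2-leaf plants; depth was then maintained. Visual assessment versus controls followed at 13 to 15 d (scale 0–100, 0 meaning no effect).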

[19] = tested on: rice (Oryra sativa); experiment: Test B flooded paddy test; conditions: Flood, 0 to 100 scale where 0 is no effect and 100 is complete control, 13 to 15 d
How it was run: as §2

[20] = tested on: ducksalad (Heteranthera limosa); experiment: Test B flooded paddy test; conditions: Flood, 0 to 100 scale where 0 is no effect and 100 is complete control, 13 to 15 d
How it was run: as §2

[21] = tested on: barnyardgrass (Echinochloa crus-galli); experiment: Test B flooded paddy test; conditions: Flood, 0 to 100 scale where 0 is no effect and 100 is complete control, 13 to 15 d
How it was run: as §2

[22] = 125 g ai/ha, postemergence, visual rating after approx. 10 d, 0 to 100 scale (0 no effect, 100 complete control)
[23] = Postemergence, 500 g ai/ha, 0 to 100 scale where 0 is no effect and 100 is complete control
[24] = 125 g ai/ha, visual rating after approx. 10 d
[25] = 500 g ai/ha, visual injury, approx. 10 d
[26] = 125 g ai/ha, Preemergence, visual injury after approximately 10 d, 0 to 100 scale where 0 is no effect and 100 is complete control
[27] = 500 g ai/ha, preemergence, 0 to 100 scale, 0 = no effect, 100 = complete control
[28] = 500 g ai/ha, postemergence, visual injury, 0 to 100 scale (0 no effect, 100 complete control), approx. 10 d

Row | SMILES | Plant response rating, Corn [1, 22] | Plant response rating, Ragweed [2, 24] | Plant response rating, Ragweed [2, 25] | Plant response rating, Kochia [3, 24] | Plant response rating, Kochia [3, 25] | Plant response rating, Foxtail, Giant [4, 24] | Plant response rating, Foxtail, Giant [4, 25] | Plant response rating, Wheat [5, 24] | Plant response rating, Wheat [5, 25] | Plant response rating, Galium [6, 24] | Plant response rating, Galium [6, 25] | Plant response rating, Blackgrass [7, 22] | Plant response rating, Ryegrass, Italian [8, 24] | Plant response rating, Ryegrass, Italian [8, 25] | Plant response rating, Barnyardgrass [9, 22] | Plant response rating, Pigweed [10, 24] | Plant response rating, Pigweed [10, 25] | Plant response rating (scale of 0 to 100), Ragweed [11] | Plant response rating, Ragweed ([11]; 62 g ai/ha) | Plant response rating, Ragweed ([11]; 125 g ai/ha) | other results
1 | O=C1NCC(c2ccc3c(c2)OC(F)(F)O3)C1C(=O)Nc1cccc(F)c1F (centres unmarked) [Compound 635] | 40 | 0 | 40 | 60 | 80 | 90 | 90 | 20 | 40 | 40 | 60 | 40 | 0 | 30 | 80 | 60 | 80 | 40 | 70 | 80 | Plant response rating, Corn [1, 23]: 70; Plant response rating, Blackgrass [7, 23]: 70; Plant response rating, Barnyardgrass [9, 23]: 90; Plant response rating, Ragweed ([11]; 250 g ai/ha): 80; Plant response rating, Ragweed [12, 26]: 40; Plant response rating, Ragweed [12, 27]: 50; Plant response rating, Kochia [13, 26]: 60; Plant response rating, Kochia [13, 27]: 60; Plant response rating, Foxtail, Giant [14, 26]: 90; Plant response rating, Foxtail, Giant [14, 27]: 90; Plant response rating, Ryegrass, Italian [15, 26]: 20; Plant response rating, Ryegrass, Italian [15, 27]: 30; Plant response rating, Barnyardgrass [16, 26]: 90; Plant response rating, Barnyardgrass [16, 27]: 90; Plant response rating, Pigweed [17, 26]: 60; Plant response rating, Pigweed [17, 27]: 70; Plant response rating, Sedge, Umbrella ([18]; 500 g ai/ha): 0; Plant response rating, Rice ([19]; 500 g ai/ha): 10; Plant response rating, Ducksalad ([20]; 500 g ai/ha): 100; Plant response rating, Barnyardgrass ([21]; 500 g ai/ha): 60
2 | CN1CC(c2ccc(F)c(F)c2)C(C(=O)Nc2ccccc2C(F)(F)F)C1=O (centres unmarked) [Compound 641] | 0 | 0 | 20 | 0 | 20 | 90 | 90 | 0 | 30 | 40 | 50 | 30 | 0 | 40 | 90 | 0 | 20 | 0 | 25 | 30 | Plant response rating, Corn [1, 28]: 50; Plant response rating, Blackgrass [7, 28]: 60; Plant response rating, Barnyardgrass [9, 28]: 90; Plant response rating, Ragweed ([11]; 250 g ai/ha): 45; Plant response rating, Ragweed [12, 26]: 0; Plant response rating, Ragweed [12, 27]: 60; Plant response rating, Kochia [13, 26]: 20; Plant response rating, Kochia [13, 27]: 50; Plant response rating, Foxtail, Giant [14, 26]: 90; Plant response rating, Foxtail, Giant [14, 27]: 100; Plant response rating, Ryegrass, Italian [15, 26]: 20; Plant response rating, Ryegrass, Italian [15, 27]: 60; Plant response rating, Barnyardgrass [16, 26]: 90; Plant response rating, Barnyardgrass [16, 27]: 0; Plant response rating, Pigweed [17, 26]: 20; Plant response rating, Pigweed [17, 27]: 50; Plant response rating, Sedge, Umbrella ([18]; 250 g ai/ha): 0; Plant response rating, Rice ([19]; 250 g ai/ha): 0; Plant response rating, Ducksalad ([20]; 250 g ai/ha): 100; Plant response rating, Barnyardgrass ([21]; 250 g ai/ha): 70
